{"source": "paper PMC8448819", "about": "“The Arabidopsis MIK2 receptor elicits immunity by sensing a conserved signature from phytocytokines and microbes” (Nature Communications, 2021)", "key": {"[1]": {"system": "bak1-4 and bak1-5/serk4 mutant seedlings", "assay": "Root growth assay, coreceptor mutants", "assay_type": "in vivo, Arabidopsis thaliana", "excerpt": "(§1) The Arabidopsis thaliana accession Columbia-0 (Col-0) was used as wild type (WT). T-DNA insertion mutants of mik2-1 (SALK_061769), mik2-2 (SALK_046987), mik2-like (SALK_112341), and rlk7-3 (SALK_120595) were obtained from the Nottingham Arabidopsis Stock Centre (NASC). The fls2 (SALK_141277), bak1-4, bik1-1/pbl1-1, bak1-5/serk4-1, rbohd mutants, and the transgenic line expressing p35S::GFP have been reported previously[19],[62],[63]. The hae/hsl2 mutant was kindly provided by Dr. Reidunn B. Aalen (University of Oslo, Norway), the pepr1-2/pepr2-2 (pepr1,2) mutant by Dr. Zhi Qi (Inner Mongolia University, China), the scoop12 mutant by Dr. Sébastien Aubourg (INRA, France), a transgenic line expressing p35S::Aequorin by Dr. Marc Knight (Durham University, UK), transgenic line expressing pMYB51::GUS by Dr. Frederick M. Ausubel (Harvard Medical School, USA). […]\n(§2) Cold stratified seeds were surface-sterilized with 70% (v/v) ethanol for 5 min and were sown on ½MS plates with or without peptides at indicated concentrations. Ten-day-old seedlings grown on plates vertically in a growth chamber were photographed, and the root lengths of seedlings were measured using Image J (http://rsb.info.nih.gov/ij/)."}, "[2]": {"system": "mik2-like, rlk7, pepr1,2, hae/hsl2 and fls2 mutant seedlings", "assay": "Root growth assay, other receptor kinase mutants", "assay_type": "in vivo, Arabidopsis thaliana", "conditions": "Supplementary Fig. 4c", "excerpt": "as §1, §2"}, "Arabidopsis WT seedlings [3]": {"system": "Arabidopsis WT seedlings", "assay": "ROS assay (luminol), WT seedlings", "assay_type": "in vivo, Arabidopsis thaliana", "conditions": "for ROS production, total luminescence (Fig. 2h): WT seedlings; for ROS production, total luminescence (Fig. 3f): WT", "protocol": "(§3) ROS burst was determined by a luminol-based assay. […] Then, ddH2O was replaced by 200 µL of reaction solution containing 50 µM of luminol, and 10 µg/mL of horseradish peroxidase (Sigma-Aldrich) supplemented with or without 100 nM or 1 μM peptide. Luminescence was measured immediately after adding the solution with a luminometer (Glomax 20/20n, Promega) with a one-second interval for 15 min. The total values of ROS production were indicated as means of the relative light units (RLUs)."}, "mik2 mutant seedlings": {"system": "mik2 mutant seedlings", "assay": "ROS assay (luminol), mik2 mutants", "assay_type": "in vivo, Arabidopsis thaliana", "protocol": "as §3"}, "[4]": {"system": "WRKY30, WRKY33 and CYP81F2 expression, mik2 seedlings", "assay": "RT-qPCR of defense genes, mik2 mutants", "assay_type": "in vivo, Arabidopsis thaliana"}, "BIK1": {"system": "BIK1", "assay": "BIK1 phosphorylation assay", "assay_type": "cell-based, Arabidopsis thaliana", "conditions": "protoplasts expressing BIK1-HA, 1 μM, 15 min, mobility shift", "protocol": "WT protoplasts were transfected with pHBT-35S::BIK1-HA for 12 h followed by treatment with 1 μM SCOOP peptides for 15 min."}, "[5]": {"system": "gene expression, WT Col-0 seedlings", "assay": "RNA-Seq, WT Col-0", "assay_type": "in vivo, Arabidopsis thaliana", "conditions": "for gene expression fold change: WT, 1 μM PIP1 vs Ctrl, 1 h", "protocol": "Seedlings were then treated with or without 1 μM PIP1 or SCOOP12 for 1 or 6 h and harvested for RNA isolation. Total RNAs (5 μg) from two biological replicates were pooled for cDNA library construction. cDNA library preparation and sequencing were carried out on an Illumina HiSeq 4000 platform with 150-nucleotide pair-end reads in LC-BIO (Hangzhou, China). Total reads were mapped to the Arabidopsis genome (TAIR10; www.arabidopsis.org) with Hisat, and the read counts for every gene were generated with StringTie. The expression levels of genes were calculated by quantifying the cDNA fragments per kilobase of transcript per million fragments mapped (FPKM). Differentially expressed genes (DEGs) between different treatments were defined by fold change of read counts at 1 and 6 h compared to that at 0 h (differential expression analysis using edgeR, fold change ≥ 2 with p-value ≤ 0.01). DEGs were listed in Supplementary Data 2."}, "[6]": {"system": "Arabidopsis WT (Col-0) seedlings", "conditions": "RLK7 activation by PIP1; cited from earlier work", "excerpt": "(§4) Plant plasma membrane-resident RKs perceive diverse exogenous and endogenous signals via the extracellular domain and activate intracellular responses through the cytoplasmic kinase domain[1]–[3]. The chimeric receptors with the swapped extracellular and intracellular domains between different RKs have been used to study the specificity of signal perception and signaling activation[48]–[52]. The extracellular domains of RKs determine the ligand-binding specificity[50],[51],[53]. The intracellular kinase domains of different RKs also trigger specific responses. For example, the chimeric rec ..."}, "Arabidopsis WT seedlings [7]": {"system": "Arabidopsis WT seedlings", "conditions": "RLK7 activation by PIP1; cited from earlier work", "excerpt": "as §4"}}}
{"substance": "PNGDIFTGPSGSGHGGGR [SCOOP10B, synthesized SCOOP peptide corresponding to the SxS motif]", "values": [{"measurement": "root growth inhibition in bak1-4", "setting": "[1]; bak1-4, 1 µM", "value": "partially compromised in bak1-4"}, {"measurement": "root growth inhibition in bak1-5/serk4", "setting": "[1]; bak1-5/serk4, 1 µM", "value": "compromised in bak1-4 and bak1-5/serk4"}, {"measurement": "response of fls2", "setting": "[2]; fls2, root growth", "value": "responded to SCOOP10^B similarly to WT plants"}, {"measurement": "response of MIK2L, RLK7, PEPR1, PEPR2, HAE and HSL2 mutants", "setting": "[2]; root growth", "value": "not involved in responsiveness to SCOOP10^B"}, {"measurement": "potency in triggering PTI responses", "setting": "Arabidopsis WT seedlings [3]; Ca^2+, ROS, MAPK, compared with other SCOOPs", "value": "more potent activities than others in triggering PTI responses"}, {"measurement": "ROS production, total luminescence (Fig. 2h)", "setting": "Arabidopsis WT seedlings [3]; repeat 1", "value": 9151950}, {"measurement": "ROS production, total luminescence (Fig. 2h)", "setting": "Arabidopsis WT seedlings [3]; repeat 2", "value": 10580582}, {"measurement": "ROS production, total luminescence (Fig. 2h)", "setting": "Arabidopsis WT seedlings [3]; repeat 3", "value": 7374543}, {"measurement": "ROS production, total luminescence (Fig. 3f)", "setting": "Arabidopsis WT seedlings [3]; repeat 1", "value": 36200000}, {"measurement": "ROS production, total luminescence (Fig. 3f)", "setting": "Arabidopsis WT seedlings [3]; repeat 2", "value": 29800000}, {"measurement": "ROS production, total luminescence (Fig. 3f)", "setting": "Arabidopsis WT seedlings [3]; repeat 3", "value": 21300000}, {"measurement": "ROS production, total luminescence (Fig. 3f)", "setting": "mik2 mutant seedlings; mik2-1, repeat 1", "value": 113000}, {"measurement": "ROS production, total luminescence (Fig. 3f)", "setting": "mik2 mutant seedlings; mik2-1, repeat 2", "value": 107000}, {"measurement": "ROS production, total luminescence (Fig. 3f)", "setting": "mik2 mutant seedlings; mik2-1, repeat 3", "value": 114000}, {"measurement": "ROS production, total luminescence (Fig. 3f)", "setting": "mik2 mutant seedlings; mik2-2, repeat 1", "value": 119000}, {"measurement": "ROS production, total luminescence (Fig. 3f)", "setting": "mik2 mutant seedlings; mik2-2, repeat 2", "value": 155000}, {"measurement": "ROS production, total luminescence (Fig. 3f)", "setting": "mik2 mutant seedlings; mik2-2, repeat 3", "value": 128000}, {"measurement": "ROS production in mik2", "setting": "mik2 mutant seedlings; mik2 mutants, 100 nM SCOOPs or 1 µM FocSCOOPL", "value": "abolished in mik2 mutants"}, {"measurement": "CYP81F2 expression (Fig. 3i)", "setting": "[4]; mik2-1, repeat 1", "value": 1.45}, {"measurement": "CYP81F2 expression (Fig. 3i)", "setting": "[4]; mik2-1, repeat 2", "value": 1.97}, {"measurement": "CYP81F2 expression (Fig. 3i)", "setting": "[4]; mik2-1, repeat 3", "value": 3.18}, {"measurement": "CYP81F2 expression (Fig. 3i)", "setting": "[4]; mik2-1, repeat 4", "value": 1.68}, {"measurement": "CYP81F2 expression (Fig. 3i)", "setting": "[4]; mik2-2, repeat 1", "value": 1.42}, {"measurement": "CYP81F2 expression (Fig. 3i)", "setting": "[4]; mik2-2, repeat 2", "value": 2.13}, {"measurement": "CYP81F2 expression (Fig. 3i)", "setting": "[4]; mik2-2, repeat 3", "value": 3.67}, {"measurement": "CYP81F2 expression (Fig. 3i)", "setting": "[4]; mik2-2, repeat 4", "value": 5.95}, {"measurement": "WRKY30, WRKY33 and CYP81F2 expression", "setting": "[4]; mik2 mutants, 1 µM, 1 h, RT-qPCR", "value": "abolished in mik2 mutants"}, {"measurement": "BIK1 phosphorylation", "setting": "BIK1", "value": "led to the phosphorylation of BIK1"}]}
{"substance": "RLASGP(OH)SPRGRGH [PIP1, secreted peptide, ligand of RLK7]", "values": [{"measurement": "overlap of MIK2 kinase domain-upregulated genes with PIP1-upregulated genes in WT", "setting": "[5]; 746 out of 1205 genes of PIP1-treated RLK7^ECD-MIK2^TK/rlk7", "value": 61.9, "unit": "%"}, {"measurement": "expression of SCOOP genes", "setting": "[5]; WT seedlings", "value": "not in WT plants"}, {"measurement": "gene expression fold change", "setting": "[5]; gene AT1G56242", "value": 13807.76}, {"measurement": "gene expression fold change", "setting": "[5]; gene AT1G69920", "value": 473.83}, {"measurement": "gene expression fold change", "setting": "[5]; gene AT3G60120", "value": 45141.52}, {"measurement": "root growth", "setting": "[6]", "value": "moderately inhibits root growth"}, {"measurement": "ROS production", "setting": "Arabidopsis WT seedlings [7]", "value": "weakly induces ROS production"}]}
